The values that follow come from US6197774A, “Pyrimidine derivative” (Otsuka Pharmaceutical Co., Ltd., priority 1997, dated 2001).

In one series the test system is contact hypersensitivity. Briefly: Contact hypersensitivity model in mouse (atopic dermatitis model). It counts as in vivo. Conditions: po, 30 minutes before causal induction, 24 hours, read-out: Control % (intumescence of the pinna, untreated = 100); for response vs control in vivo at 3 mg/kg: 3 mg/Kg p.o.; for response vs control in vivo at 20 mg/kg: 20 mg/Kg p.o. On the procedure: [Contact hypersensitivity model in mouse (Atopic dermatisis model)]
Test was conducted by referring to the method as described in "HIFU (a Japanese journal of dermatology)" Vol. 35, Supplemental Issue No. 15, pp. 96-106, published on March 1993.
CBA/J strain mice of 6-8 week age were used as the test animals (6-8 mice in one group). The mouse was sensitized by coating 150 μl of 5% of picryl chloride [dissolved in a mixture of acetone with olive oil (1:4)] on the shaved portion of skin in the back of mouse. […] 24 Hours after the causal induction, the effect for inhibiting contact hypersensitivity performed by the test compounds were evaluated by referring to the action for inhibiting intumescence of the pinna as an indication. The test compound was orally administered 30 minutes before the causal induction.
The following compounds were used for the test.
1) Compounds of the Present Invention:
(Dosage: 20 mg/Kg p.o., which is 7-10 times larger amount of dosages for compounds of the present invention)
The value obtained from the sensitization test without administration of the test compound was referred to as 100, and by comparing with the values obtained from the sensitization test with administration of the test compound was referred to "% control" values.

Series [1] deals with formation of NO in cell strain RAW 264.7. Put plainly: Activity for inhibiting the formation of NO (LPS-stimulated RAW 264.7 cells, Griess reagent). The format is cell-based. Conditions: Mus musculus, RAW264.7, 1 × 10^-6 M, LPS 100 ng/ml, 24 hours, read-out: Ratio of formed amount of NO (reference culture medium = 100). On the procedure: [Evaluation test of activity for inhibiting the formation of NO]
Pharmacological tests of pyrimidine derivatives obtained in Examples 1, 12, 14, 19, 22, 24, 29 and 42 used as test compounds were conducted as follows.
Preparation of culture media and method of cell culture were conducted in accordance with those described in J. Biol. Chem., Vol. 269, No. 1, pp. 711-715, (1994), and determination of formed amount of NO was conducted in accordance with the method described in Anal. Biochem., Vol. 126, pp. 131-138, (1982), respectively.
(1) Cell Culture and Inducible Synthesis of NO in the Cells by Stimulation with Lipopolysaccharide (LPS)
Cell strain RAW 264.7 (ATCC) derived from the macrophage of mouse was placed on each one of the wells on a microplate having 24-wells so as to put the cells in an amount of 1×10^5 cells/U (well). The cells were incubated for 24 hours in a phenol red free-RPMI-1640 culture medium (mfd. by GIBCO) to which 10% of fetal bovine serum, 100 U/ml of penicillin (mfd. by Dainippon Pharmaceutical Co., Ltd.) and 100 μg/ml of streptomycin (mfd. by Dainippon Pharmaceutical Co., Ltd.) were added.
Next, the reference culture medium was prepared by adding 2 mM of L-arginine (mfd. by Wako Pure Chemical Industries, Ltd.), 10 μM/ml of tetrahydrobiopterin (mfd. by ALEXIS) and 100 ng/ml of lipopolysaccharide (LPS)(mfd. by Sigma Chemical Co.) to a phenol red free-RPMI-1640 culture medium. While, the reference culture medium without containing LPS was used as the blanc culture medium.
On the other hand, the test culture medium, containing the test compound was prepared by adding 0.2% of the test compounds dissolved in dimethyl sulfoxide (DMSO) to the reference culture medium to adjust the final concentration of the test compound to 1×10^-6 M.
Each one of the blank culture medium, reference culture medium and test culture medium containing the test compound was added, respectively to the well on the micro-plate where the above-mentioned cell strain RAW 264.7 was placed, and was incubated for 24 hours.
(2) Measurement of the Amount of Formed NO
Quantitative measurement of NO cannot be made directly, due to its unstability. Therefore, the amount of NO is measured indirectly, thus by forming nitrous acid ion (hereunder referred to as NO2^-) which is stable product derived from NO by use of Griess reagent [consisting of 1% of sulfanylamide and 0.1% of sulfuric acid solution containing 0.1% N-(1-naphthyl)ethylenediamine dihydrochloride], and measure the amount of NO2^-.
Into the supernatant of each one of the culture media was admixed with the same amount of Griess reagent respectively, and subjected to reaction at room temperature for 10 minutes, then the optical absorbance at 540 nm of the thus reacted culture medium was measured. While, the optical absorbance of sodium nitrite solution diluted with the culture medium was referred to as the standard value, and the amount of NO2^- formed in each one of these incubated culture media was measured. The amounts of NO2^- formed in the reference culture medium and the test culture medium were corrected by using the value of formed amount of NO2^- in the blanc culture medium.
On the basis of that the ratio of amounts of NO2^- formed in the reference culture medium and that of formed in the test culture medium is corresponding to the ratio of amount of NO formed in the reference culture medium and that of formed in the test culture medium. Thus the amount of NO2^- formed in the reference culture medium is referred to as the value of 100, and the value of amount of NO2^- formed in the test culture medium is referred to as amount of NO formed in the test culture medium.
On the technique in general: Nitrite, measured by Griess reagent, commonly stands in for NO production.

Series [2] in a line: Toxicity of compound against the cell strain RAW 264.7 (MTT). The format is cell-based. The conditions noted are these: mouse, raw 264.7 cells, 1 × 10^-6 M, read-out: Ratio of optical absorbance. On the procedure:
[Toxicity test (Toxicity of compound against the cell strain RAW 264.7)]
Test was conducted in accordance with the method as described in J. Immunol. Methods, Vol. 94, pp. 57-68, (1986). Cell strain RAW 264.7 derived from the macrophage of mouse was incubated similarly as in the method of Test Example 1(1). After that, MTT reagent (5 mg/ml) in 1/10 amount of the culture medium was added to the cells, and incubated for 4 hours. The supernatant of culture medium was taken off, then the cells were collected by using 1% SDS solution and the optical absorbance at 570-630 nm of the SDS solution was measured.

The next series concerns late asthmatic response. Put plainly: Model experiment of asthma in guinea pigs (inhibition of late asthmatic response). The conditions noted are these: control 112 ± 17.8. The format is in vivo, guinea pig. As for the experimental part: [Model experiment of asthma in guinea pigs. (Inhibition of late asthmatic response)]
Hartley strain female guinea pigs (SLC) having the body weight of about 350 g were used and 50 mg/Kg of cyclophosphamide (mfd. by Sigma Chemical Co.) was injected intraperitoneally. 2 Days after this pretreatment by injection, 1 mg of egg albumin (mfd. by Sigma Chemical Co.) and 100 mg of aluminum hydroxide (Wako Pure Chemical Industries Co., Ltd.) were injected intraperitoneally for sensitization. 3 Weeks after the sensitization, 10 μg of egg albumin and 100 mg of aluminum hydroxide were injected intraperitoneally for booster sensitization. 6 Weeks after the primary sensitization, asthma attach was induced by inhalation and exposure to egg albumin (4 mg/ml) by using a nebulizer (NE-U12: mfd. by Omron Corp.). The asthma reaction was determined by use of a body-plethysmography (using system developed by Uchida lecturer in internal department for respiratory organs at Tsukuba University; air-resist tube, respiratory amplifier and differential pressure transducer (mfd. by Nihon Koden); and osciloscope (mfd. by Iwasaki Tsushin)), so as to determine a […] of specific airway conductance (sGaw) under the condition without anesthesia. The sGaw value just before the administration of test comopound was measured and the value is referred to as 100. Test compound was suspended in 1% HPMC (hydroxymethylpropylcellulose mfd. by Shinetsu Chemical), and was administered orally 30 minutes before the exposure with the antigen. Then, sGaw value was measured in each points until 7 hours after the exposure with the antigen.

The structures appear in SMILES notation.

Turning to `O=c1cc(C2CCCO2)[nH]c2c(-c3ccc(Sc4ccccc4)cc3)cnn12` (stereo not drawn) [Example 19, 4,7-dihydro-7-oxo-3-(4-phenylthiophenyl)-5-(tetrahydrofuran-2-yl)pyrazolo[1,5-a]pyrimidine], in the series on contact hypersensitivity, the response vs control in vivo at 3 mg/kg is 44.7%. Also, the activity at 1 µM in series [1] worked out at 63.1%.

Take `COCCOCc1cc(=O)n2ncc(-c3ccc(Sc4ccccc4)cc3)c2[nH]1` [Example 14, 4,7-dihydro-5-(2-methoxyethoxymethyl)-7-oxo-3-(4-phenylthiophenyl)pyrazolo[1,5-a]pyrimidine]: the viability at 1 µM in series [2] is 94.2%. In series [1], the activity at 1 µM was found to be 64.4%.

For the compound `C[C@]12C=CC(=O)C=C1CC[C@@H]1[C@@H]2[C@@H](O)C[C@@]2(C)[C@H]1CC[C@]2(O)C(=O)CO` [Prednizolone], in the series with late asthmatic response (30 mg/Kg orally 30 minutes before antigen, 8 animals), the “AUC (4-7 hours) of sGaw reaction” value stood at 15.6 ± 3.5.

As for `Cc1cc(O)n2ncc(-c3ccc(Sc4ccccc4)cc3)c2n1` [(2), 7-Hydroxy-5-methyl-3-(4-phenylthiophenyl)pyrazolo[1,5-a]pyrimidine], the response vs control in vivo at 20 mg/kg with contact hypersensitivity amounted to 90%.

For `CSCc1cc(=O)n2ncc(-c3ccc(Sc4ccccc4)cc3)c2[nH]1` [Example 29, 4,7-dihydro-5-methylthiomethyl-7-oxo-3-(4-phenylthiophenyl)pyrazolo[1,5-a]pyrimidine], the viability at 1 µM in series [2] was determined as 89.7%. Besides, the activity at 1 µM in series [1] worked out at 52.2%.

On to `Oc1ccnc2c(-c3ccc(Sc4ccccc4)cc3)cnn12` [(8), 7-Hydroxy-3-(4-phenylthiophenyl)pyrazolo[1,5-a]pyrimidine], for which the “AUC (4-7 hours) of sGaw reaction” value in the series with late asthmatic response (39 mg/Kg (so in the source) orally 30 minutes before antigen, 3 animals) came out at 127.9 ± 45.4. For the same compound, in the series on contact hypersensitivity, the response vs control in vivo at 20 mg/kg is 100%.

With `O=c1cc(COc2ccccc2)[nH]c2c(-c3ccc(Sc4ccccc4)cc3)cnn12` [Example 12, 4,7-dihydro-7-oxo-5-phenoxymethyl-3-(4-phenylthiophenyl)pyrazolo[1,5-a]pyrimidine], the viability at 1 µM in series [2] stood at 103%. The activity at 1 µM in series [1] is 67%.

As to `COCc1cc(=O)n2nc(COC)c(-c3ccc(Sc4ccccc4)cc3)c2[nH]1` [Example 42, 2,5-bis(methoxymethyl)-4,7-dihydro-7-oxo-3-(4-phenylthiophenyl)pyrazolo[1,5-a]-pyrimidine], in series [1], the activity at 1 µM is 55.4%.

As for `CC(C)(C)OCCOCc1cc(=O)n2ncc(-c3ccc(Sc4ccccc4)cc3)c2[nH]1` [Example 15, 5-(2-t-butoxyethoxymethyl)-4,7-dihydro-7-oxo-3-(4-phenylthiophenyl)pyrazolo[1,5-a]pyrimidine], in the series on contact hypersensitivity, the response vs control in vivo at 3 mg/kg is 46.3%.

Turning to `Oc1ccnc2c(-c3cccc(C(F)(F)F)c3)cnn12` [(5), 7-Hydroxy-3-(3-trifluoromethylphenyl)pyrazolo [1,5-a]pyrimidine], in the series with contact hypersensitivity, the response vs control in vivo at 20 mg/kg was found to be 90.4%.

Consider `Oc1cc(CCl)nc2cc(-c3ccc(Sc4ccccc4)cc3)nn12` [(7), 7-Hydroxy-5-chloromethyl-2-(4-phenylthiophenyl)pyrazolo[1,5-a]pyrimidine], for which the response vs control in vivo at 20 mg/kg with contact hypersensitivity came to 113%.

As to `Oc1cc(CCl)nc2cc(-c3ccccc3)nn12` [(4), 7-Hydroxy-5-chloromethyl-2-phenylpyrazolo[1,5-a]pyrimidine], the response vs control in vivo at 20 mg/kg with contact hypersensitivity was determined as 103%.

Turning to `COc1cc(-c2c(-c3ccccn3)nn3c(O)cc(C)nc23)ccc1Sc1ccccc1` [(6), 7-Hydroxy-5-methyl-3-(3-methoxy-4-phenylthiophenyl)-2-(2-pyridyl)pyrazolo[1,5-a]pyrimidine], in the series with contact hypersensitivity, the response vs control in vivo at 20 mg/kg is 94.7%.

On to `Oc1cc(C2CC2)nc2c(-c3ccc(Sc4ccccc4)cc3)cnn12` [(1), 7-Hydroxy-5-cyclopropyl-3-(4-phenylthiophenyl)pyrazolo[1,5-a]pyrimidine], for which, in the series with contact hypersensitivity, the response vs control in vivo at 20 mg/kg is 99%.

On to `COCCc1cc(=O)n2ncc(-c3ccc(Sc4ccccc4)cc3)c2[nH]1` [Example 22, 4,7-dihydro-5-(2-methoxyethyl)-7-oxo-3-(4-phenylthiophenyl)pyrazolo[1,5-a]pyrimidine], for which the viability at 1 µM in series [2] is 101%. In addition, in series [1], the activity at 1 µM worked out at 60.3%.

On to `COC(OC)c1cc(=O)n2ncc(-c3ccc(Sc4ccccc4)cc3)c2[nH]1` [Example 24, 4,7-dihydro-5-dimethoxymethyl-7-oxo-3-(4-phenylthiophenyl)pyrazolo[1,5-a]pyrimidine], for which the viability at 1 µM in series [2] came to 108%. The activity at 1 µM in series [1] came out at 67.3%.

For `COCc1nn2c(O)ccnc2c1-c1ccc(Sc2ccccc2)cc1` [(3), 7-Hydroxy-2-methoxymethyl-3-(4-phenylthiophenyl)pyrazolo[1,5-a]pyrimidine], the response vs control in vivo at 20 mg/kg with contact hypersensitivity amounted to 104%.
